The text below walks through data of ChEMBL document CHEMBL1949543, “Synthesis and evaluation of novel monosubstituted sulfonylurea derivatives as antituberculosis agents” (Eur J Med Chem, 2012).

Assay [1] deals with Mycobacterium tuberculosis. The assay is described as follows: Antituberculosis activity against Mycobacterium tuberculosis H37Rv ATCC 27294. The class given is functional.
The nature of assay [2]: Selectivity ratio of IC50 for human THP1 cells to MIC for Mycobacterium tuberculosis isolate A. The class given is functional, THP-1.
A short description of assay [3]: Selectivity ratio of IC50 for human THP1 cells to MIC for Mycobacterium tuberculosis H37Rv ATCC 27294. The class given is functional, THP-1.
Assay [4] has as its system THP-1. The experiment in a line: Cytotoxicity against human THP1 cells after 72 hrs by MTT assay. It counts as cell-based. The conditions noted are these: THP-1, 72 h. In general terms: Tetrazolium assays rely on reduction of a dye to a coloured formazan, in cell work by metabolically active cells.
For assay [5], the system named is Mycobacterium kansasii. The experiment in a line: Antituberculosis activity against Mycobacterium kansasii ATCC 12478. It counts as functional.
Assay [6] concerns Mycobacterium tuberculosis. The assay is described as follows: Antituberculosis activity against Mycobacterium tuberculosis isolate A. It counts as functional.
For assay [7], the system named is Mycobacterium avium. The assay is described as follows: Antituberculosis activity against Mycobacterium avium ATCC 25291. The class given is functional, Mycobacterium avium subsp. avium ATCC 25291.

Converted amounts (≈) assume the structure as drawn.

One may read the MIC as the least concentration at which growth counts as inhibited. The low end stands for a more susceptible organism, the high end for a less susceptible organism. Take `CC(=O)Nc1ccc(Cl)c(S(=O)(=O)NC(=O)Nc2nccc(C)n2)c1`: the minimal inhibitory concentration (MIC) in assay [1] is more than 100 µg/mL.

As a reminder, the IC50 is the concentration at which inhibition is half-maximal. Low readings indicate inhibition by little substance, high ones a need for much substance. For the compound `Cc1ccnc(NC(=O)NS(=O)(=O)c2cc(NC(=O)CCl)ccc2Cl)n1`, the minimal inhibitory concentration (MIC) is 10 µg/mL (≈ 23.9 µM) in assay [1], 20 µg/mL (≈ 47.8 µM) in assay [5], 10 µg/mL (≈ 23.9 µM) in assay [6] and more than 100 µg/mL in assay [7]. The Selectivity ratio in assay [2] and in assay [3] was 10 throughout. This compound also registered an IC50 in assay [4] of 138 µg/mL (≈ 330 µM).

`Cc1ccnc(NC(=O)NS(=O)(=O)c2cc(NC(=O)C(C)C)ccc2Cl)n1`: in assay [1], the MIC was more than 100 µg/mL.

In turn, `Cc1ccnc(NC(=O)NS(=O)(=O)c2cc(NC(=O)C3CC3)ccc2Cl)n1` showed an MIC in assay [1] of more than 100 µg/mL.

In the case of `Cc1ccnc(NC(=O)NS(=O)(=O)c2cc(NC(=O)C(C)(C)C)ccc2Cl)n1`, the MIC in assay [1] is more than 100 µg/mL.

Compound `C=CC(=O)Nc1ccc(Cl)c(S(=O)(=O)NC(=O)Nc2nccc(C)n2)c1` returned an MIC in assay [1] of 20 µg/mL (≈ 50.5 µM).

In turn, `Cc1ccnc(NC(=O)NS(=O)(=O)c2cc(NC(=O)C(C)Cl)ccc2Cl)n1` (stereo not drawn) yielded an MIC in assay [1] of more than 100 µg/mL.

As for `CC(=O)OCC(=O)Nc1ccc(Cl)c(S(=O)(=O)NC(=O)Nc2nccc(C)n2)c1`, the MIC in assay [1] is more than 100 µg/mL.

Compound `CCOC(=O)C(=O)Nc1ccc(Cl)c(S(=O)(=O)NC(=O)Nc2nccc(C)n2)c1` came in with a minimum inhibitory concentration (MIC) in assay [1] of more than 100 µg/mL.

As for `Cc1ccnc(NC(=O)NS(=O)(=O)c2cc(NC(=O)C(F)(F)C(F)(F)C(F)(F)F)ccc2Cl)n1`, the MIC in assay [1] is more than 100 µg/mL.

Take `Cc1ccnc(NC(=O)NS(=O)(=O)c2cc(NC(=O)c3ccccc3)ccc2Cl)n1`: the MIC in assay [1] was 100 µg/mL (≈ 224 µM).

For the compound `Cc1ccnc(NC(=O)NS(=O)(=O)c2cc(NC(=O)C(F)(F)F)ccc2Cl)n1`, the MIC in assay [1] is more than 100 µg/mL.

`Cc1ccnc(NC(=O)NS(=O)(=O)c2cc(NC=O)ccc2Cl)n1` gave an MIC in assay [1] of more than 100 µg/mL.

Turning to `COc1ccnc(NC(=O)NS(=O)(=O)c2cc(NC(C)=O)ccc2Cl)n1`, the MIC in assay [1] was more than 100 µg/mL.

Consider `COc1ccnc(NC(=O)NS(=O)(=O)c2cc(NC(=O)CCl)ccc2Cl)n1`, for which the MIC was 10 µg/mL (≈ 23 µM) in assay [1], 20 µg/mL (≈ 46.1 µM) in assay [5], 10 µg/mL (≈ 23 µM) in assay [6] and more than 100 µg/mL in assay [7]. For the same compound, the Selectivity ratio in assay [2] and in assay [3] was 10 in each case. The compound further displayed a concentration for half-maximal inhibition (IC50) in assay [4] of 180 µg/mL (≈ 414 µM).

For `COc1ccnc(NC(=O)NS(=O)(=O)c2cc(NC(=O)C(C)C)ccc2Cl)n1`, in assay [1], the MIC was more than 100 µg/mL.

In assay [1], `COc1ccnc(NC(=O)NS(=O)(=O)c2cc(NC(=O)C3CC3)ccc2Cl)n1` yielded an MIC of more than 100 µg/mL.

`COc1ccnc(NC(=O)NS(=O)(=O)c2cc(NC(=O)C(C)(C)C)ccc2Cl)n1`: the minimum inhibitory concentration (MIC) in assay [1] is more than 100 µg/mL.

In the case of `C=CC(=O)Nc1ccc(Cl)c(S(=O)(=O)NC(=O)Nc2nccc(OC)n2)c1`, the minimum inhibitory concentration (MIC) in assay [1] came out at 40 µg/mL (≈ 97.1 µM).

In assay [1], `COc1ccnc(NC(=O)NS(=O)(=O)c2cc(NC(=O)C(C)Cl)ccc2Cl)n1` (stereo not drawn) came in with an MIC of more than 100 µg/mL.

`COc1ccnc(NC(=O)NS(=O)(=O)c2cc(NC(=O)COC(C)=O)ccc2Cl)n1`: the MIC in assay [1] was more than 100 µg/mL.

Take `CCOC(=O)C(=O)Nc1ccc(Cl)c(S(=O)(=O)NC(=O)Nc2nccc(OC)n2)c1`: the MIC in assay [1] was more than 100 µg/mL.

In the case of `COc1ccnc(NC(=O)NS(=O)(=O)c2cc(NC(=O)C(F)(F)C(F)(F)C(F)(F)F)ccc2Cl)n1`, the MIC in assay [1] was more than 100 µg/mL.

As for `COc1ccnc(NC(=O)NS(=O)(=O)c2cc(NC(=O)C(F)(F)F)ccc2Cl)n1`, in assay [1], the MIC is more than 100 µg/mL.

`COc1ccnc(NC(=O)NS(=O)(=O)c2cc(NC=O)ccc2Cl)n1` came in with a minimum inhibitory concentration (MIC) in assay [1] of more than 100 µg/mL.

In assay [1], `COC(=O)c1ccccc1S(=O)(=O)NC(=O)Nc1nc(C)cc(C)n1` [SULFOMETURON METHYL] registered an MIC of 10 µg/mL (≈ 27.4 µM).
